# Laboratory results from patent publication US20250382583A1, “ENHANCED METHODS FOR INDUCING AND MAINTAINING NAIVE HUMAN PLURIPOTENT STEM CELLS” (Washington University, priority 2021, published 2025).
# Assays:
# Type in all cases: cell-based, human
# [1] = system: WIBR3 OCT4-ΔPE-GFP+-naïve hESCs; assay: Extended maintenance assay, OCT4-ΔPE-GFP reporter activity (imaging, qRT-PCR); details: for activity in maintaining OCT4-ΔPE-GFP reporter activity after passaging: 2.5 and 5 μM, two passages
# Experimental: (§1) Defining alternative naïve maintenance media: To define the activity of selected hit compounds during extended naïve culture, naïve hESCs derived from the primed state and maintained in 5i/L/A were dissociated with Accutase (Thermo Fischer Scientific, A1110501) and 1.5×10^5 single cells were seeded in 5i/L/A media on MEF-coated plates. After 24 hours, 5i/L/A media were switched to experimental maintenance conditions to validate hits from the screen. After 4-6 days the cells were split in a 1:2 or 1:3 ratio and further maintained for 4-6 days before analysis by FACS, qRT-PCR, AP staining, and/or RNA-seq. 5i/L/A media in which the MEK inhibitor PD0325901 was replaced with 5 μM AZ628 are represented as alternative 5i/L/A (a5i/L/A). FXGY, AXGY, AXGYU, PXGY, and GXGY media were prepared in serum-free N2B27 media supplemented with 1 μM PD166866, 5 μM AZ628, 5 μM AZ628 and 1 μM UNC0638, 1 μM PD0325901, and 5 μM GDC-0994, respectively, together with 2 μM XAV939, 2 μM Gö6983, and 10 μM Y-27632. During these assays cells were fed with fresh media every second day and cultured in 5% O2, 5% CO2 at 37° C. Detailed information on conditions used for defining alternative naïve maintenance media can be found in Tables 1-6.
# (§2) Quantitative reverse transcriptase PCR (qRT-PCR): Total RNA was isolated using the E.Z.N.A. total RNA kit I and cDNA synthesis was performed from total RNA using the high-capacity cDNA reverse transcription kit (Applied Biosystems, 4368814). qRT-PCR was performed using PowerUp SYBR Green Master Mix (Applied Biosystems, A25743) on the StepOnePlus Real-Time PCR System (Applied Biosystems). Gene expression was normalized to RPLP0 and analyzed using the ΔCt method. Error bars represent the standard deviation (SD) of the mean of technical replicates.
# For this purpose, WIBR3 OCT4-ΔPE-GFP+-naïve hESCs that were generated in the absence of reprogramming transgenes were used using the 5i/L/A cocktail. […] Compounds were tested at two different concentrations (2.5 and 5 μM), and cells were maintained for two passages (FIG. 2A).
# [2] = system: H9-naïve hESCs; assay: Extended maintenance assay, flow cytometry for naïve-specific CD75 and SUSD2; details: serum-free media supplemented with XGY, 2.5 μM compound
# Experimental: as §1
# Flow cytometry: Primed hESCs were single-cell dissociated using TrypLE Express, while Accutase was used for naïve hESCs. Cells were resuspended in fibroblast medium and centrifuged. Cell pellets were washed in 5 mL ice-cold PBS. The cells were then resuspended in […] fresh ice-cold FACS buffer (PBS supplemented with 5% FBS), and incubated with antibodies for 30 minutes on ice in the dark. The following antibodies were used: anti-SUSD2-PE (1:100), anti-CD75-eFluor 660 (1:100), anti-CD90-PE (1:100), anti-ITGA6-FITC (1:100) and EGFR-APC (1:25). Post-incubation the cells were washed once with 1 mL ice-cold PBS, resuspended in fresh 500 μl FACS buffer, and passed through a […] cell strainer into round bottom FACS tubes (Corning, #352235). Flow cytometry was performed using a BD LSRFortessa X-20 and the data were analyzed using the FlowJo software.
# [3] = system: H9 hESCs; assay: Primed-to-naïve reprogramming, colony morphology and colony numbers (imaging, AP staining); details: for morphological appearance of naïve hESCs on individual addition to PXGGY/A: 20 ng/ml LIF, 0.5 μM IM12 or 0.5 μM WH-04, P2
# Experimental: (§3) […]: For primed-to-naïve resetting experiments, primed hESCs were dissociated into single cells using TrypLE Express (GIBCO, 12604), washed in fibroblast medium [DMEM (Millipore Sigma, #SLM-021-B) supplemented with 10% FBS (HyClone, SH30396.03, 1×GlutaMAX (GIBCO, 35050), and 1% penicillin-streptomycin (GIBCO, 15140)] and 2×10^5 single primed hESCs were seeded on mitomycin C-inactivated mouse embryonic fibroblast (MEF) feeder cells coated 6 well plates in 3-4 mL mTeSR1 supplemented with 10 μM Y-27632. Two days later, medium was switched to either 5i/L/A or experimental induction media and maintained for 10-12 days. Cells at this stage were considered at passage zero. Cells were then split in a 1:2 or 1:3 ratio every 4-6 days as single cells using Accutase (Thermo Fischer Scientific, A1110501). PXGGY media were prepared in serum-free N2B27 media supplemented with 1 μM PD0325901, 2 μM XAV939, 2 μM Gö6938, 2.5 μM GDC-0994, and 10 μM Y-27632. PXGGY/A media were prepared in PXGGY supplemented with 10 ng/ml Activin A. During these assays cells were fed with fresh media every second day and cultured in 5% O2, 5% CO2 at 37° C. Detailed information on the conditions used for defining alternative naïve induction media can be found in Tables 1-6.
# (§4) Alkaline phosphatase (AP) staining: AP staining was performed following the manufacturer's instructions using the Leukocyte Alkaline Phosphatase Kit (Sigma, 86R, 1KT). For AP staining cells were seeded at equal density in 6-well plates and passaged in the same ratio for all conditions. Post-staining cells were allowed to dry overnight in the dark and scanned using HP Color Laser Jet Managed printer/scanner (MFP E67650).
# (§5) Imaging: The imaging of H9 and WIBR3 hESCs was performed in live conditions within culture media. For WIBR3 MECP2-GFP/tdTomato hESCs the medium was aspirated, cell were washed twice with PBS, and imaged in 1 mL of PBS. All images were captured at 10× magnification on a Leica DMi8 microscope.
# Example 1 establishes the PXGGY/A cocktail enables efficient primed-to-naïve reprogramming, homogenous induction of naïve-specific cell surface markers CD75 and SUSD2, and homogenous X-chromosome reactivation. […] To address this, the impact of ROCK inhibitor Y-27632 titration was first assessed when used continuously or transiently for only 24 hours at the time of passaging during primed-to-naïve reprogramming (FIG. 9A and FIG. 9B). […] The PXGGY/A composition from hereon will be denoted as PXGGY/A to specify transient use of ROCKi.
# However, the morphology of naïve hESCs reprogrammed using this condition still appeared flat compared to the characteristic dome-shaped colony morphology associated with naïve pluripotency. […]
# [4] = system: naïve hESCs; assay: Colony morphology, proliferation and colony formation (phase contrast, AP staining) during naïve maintenance
# Experimental: as §1, §4, §5
# [5] = system: H9-naïve hESCs; assay: qRT-PCR for naïve-specific transcripts (KLF17, DNMT3L) during naïve maintenance
# Experimental: as §1, §2
# [6] = system: H9 primed hESCs; assay: Primed-to-naïve resetting, flow cytometry for CD75 and SUSD2
# Experimental: as §3, with “PXGGY/A media were prepared in PXGGY supplemented with 10 ng/ml Activin A. During these assays cells were fed with fresh media every second day and cultured in 5% O2, 5% CO2 at 37° C. Detailed information on the conditions used for defining alternative naïve induction media can be found in Tables 1-6.” left out
# Flow cytometry: Primed hESCs were single-cell dissociated using TrypLE Express, while Accutase was used for naïve hESCs. […] Flow cytometry was performed using a BD LSRFortessa X-20 and the data were analyzed using the FlowJo software.
# [7] = system: WIBR3 OCT4-ΔPE-GFP+naïve hESCs; assay: High-throughput chemical screening in absence of 2i, OCT4-ΔPE-GFP reporter, high-content imaging; details: N2B27/Y
# Experimental: High-throughput chemical screening: For high-throughput screening, WIBR3 OCT4-ΔPE-GFP+naïve hESCs generated with inducible KLF2 and NANOG transgenes were used, as described previously. These cells were maintained in 1 μM PD0325901, 1 µM CHIR99021, and 2 μg/ml DOX (Sigma) (2i/DOX). For compound screening in presence of 2i/Y, 3,000 OCT4-ΔPE-GFP+naïve hESCs were seeded per well in vitronectin-coated 384 well plates in serum-free N2B27 media supplemented with 1 μM PD0325901, 1 μM CHIR99021, and 10 μM Y-27632. The next day individual compounds from the Novartis Mechanism of Action (MoA) library were applied at two concentrations (2.5 μM and 5 μM) in duplicate using an Echo 550 Acoustic Liquid Handler (Labcyte), and compounds were refreshed on day 4. Images were analyzed on day 5 post-DOX withdrawal using a Yokogawa Cell Voyager 7000 High-Content Imaging System in confocal mode using a 10× dry (NA=0.45) objective lens using four fields per well that provided for full well coverage. While the screen was performed at two concentrations (2.5 μM and 5 μM), the lower concentration yielded few additional hits. Hit compounds were validated in 384 well plates across an 8-point concentration range in duplicates. […] Images were acquired using the Yokogawa Cell Voyager 7000 on day 7 and analyzed as described above. […]
compound,measurement,setting,value
Cc1ccc(NC(=O)c2cccc(C(C)(C)C#N)c2)cc1Nc1ccc2ncn(C)c(=O)c2c1 [AZ628],activity in maintaining OCT4-ΔPE-GFP reporter activity after passaging,[1]; in Go/Y,showed activity
same,activity in maintaining OCT4-ΔPE-GFP reporter activity after passaging,[1]; in XAV/Y,showed activity
same,expansion of OCT4-ΔPE-GFP+ cells,[1]; in the presence of either XAV or Go,robust expansion
same,sustaining CD75/SUSD2-positive cells over multiple passages,[2],robustly sustained
Cc1[nH]c2ccccc2c1C1=C(NCCc2ccc(F)cc2)C(=O)N(C)C1=O [IM12],morphological appearance of naïve hESCs on individual addition to PXGGY/A,[3],did not result in a major improvement
CC(C)(C)n1nc(-c2cccc3ccccc23)c2c(N)ncnc21 [Naphtol-PP1],colony morphology upon addition to the AXGY cocktail,[4]; added to AXGY,enhanced dome-shaped colony morphology
COc1cc(OC)cc(-c2cc3cnc(N)nc3nc2NC(=O)NC(C)(C)C)c1 [PD166866],activity in maintaining OCT4-ΔPE-GFP reporter activity after passaging,[1]; in the presence of ROCK inhibitor (Y) alone,showed activity
same,sustaining CD75/SUSD2-positive cells over multiple passages,[2],robustly sustained
same,concentration effective to maintain expression of naïve-specific transcripts (titration),"[5]; in XAV/Gö/Y, KLF17 and DNMT3L",1 µM
same,induction of CD75/SUSD2 double-positive cells in primed hESCs,"[6]; in the presence of XGY and activin A, end of P1",heterogeneous induction
C/C(=N\NC(=N)N)c1cc(NC(=O)CCCCCCCCC(=O)Nc2cc(/C(C)=N/NC(=N)N)cc(/C(C)=N/NC(=N)N)c2)cc(/C(C)=N/NC(=N)N)c1 [Semapimod],sustaining CD75/SUSD2-positive cells over multiple passages,[2],some double-positive cells
same,proliferation of double-positive cells,[4]; serum-free media supplemented with XGY,very limited proliferation
COc1cc2c(NC3CCN(C(C)C)CC3)nc(C3CCCCC3)nc2cc1OCCCN1CCCC1 [UNC0638],KLF17 expression upon addition to the AXGY cocktail,[5]; added to AXGY,further stimulated
same,colony proliferation compared to AXGY,[4]; added to AXGY,slightly reduced
COc1ccc(N(C(=O)Oc2c(C)cccc2C)c2ccnc(Nc3ccc(N4CCN(C)CC4)cc3)n2)c(OC)c1 [WH-4-023],morphological appearance of naïve hESCs on individual addition to PXGGY/A,[3],did not result in a major improvement
Oc1nc(-c2ccc(C(F)(F)F)cc2)nc2c1CSCC2 [XAV939],colony size and OCT4-ΔPE-GFP signal compared to inhibition of MEK1,[7],larger colonies but a slightly dimmer OCT4-ΔPE-GFP signal
same,increase in GFP activity (OCT4-ΔPE-GFP),"[7]; validation assays, absence of 2i",particularly strong effect
C[C@@H](N)[C@H]1CC[C@H](C(=O)Nc2ccncc2)CC1 [Y-27632],CD75+/SUSD2+ cell proportion,"[6]; transient application of 10 μM in PXGGY/A, P1",without any significant reduction
same,morphology of reprogrammed naïve hESCs,[3]; transient application (24 hours at passaging) of 10 μM in PXGGY/A,improves the morphology
"LIF: leukemia inhibitory factor, recombinant human cytokine",morphological appearance of naïve hESCs on individual addition to PXGGY/A,[3],did not result in a major improvement
